Results: PubChem BioAssay AID1963828 (Molecular Pharmacology Branch, DTP, NCI, 2024)

Test system: 991263-137-R1-J2-PDC complex spheroid viability
Assay: Anticancer human tumor 991263-137-R1-J2-PDC patient-derived colon adenocarcinoma cell line growth inhibition [POLQ]
Conditions: for IC50: curve of first compound; for viability, T/C: stronger effect = lower value
In short: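 PDC + HUVEC + MSC complex spheroids; POLQ inhibitors ± partner drugs; top conc. at/near clinical Cmax, else 10 microM (SN-38 1 microM), half-log dilutions; 37 degrees C, 5% CO2.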

[1] = second compound 0.0316 µM, first compound 0.0316 µM
[2] = second compound 0.0316 µM, first compound 0.1 µM
[3] = second compound 0.0316 µM, first compound 0.316 µM
[4] = second compound 0.0316 µM, first compound 1 µM
[5] = second compound 0.0316 µM, first compound 3.16 µM
[6] = second compound 0.0316 µM, first compound 10 µM
[7] = second compound 0.1 µM, first compound 0.0316 µM
[8] = second compound 0.1 µM, first compound 0.1 µM
[9] = second compound 0.1 µM, first compound 0.316 µM
[10] = second compound 0.1 µM, first compound 1 µM
[11] = second compound 0.1 µM, first compound 3.16 µM
[12] = second compound 0.1 µM, first compound 10 µM
[13] = second compound 0.316 µM, first compound 0.0316 µM
[14] = second compound 0.316 µM, first compound 0.1 µM
[15] = second compound 0.316 µM, first compound 0.316 µM
[16] = second compound 0.316 µM, first compound 1 µM
[17] = second compound 0.316 µM, first compound 3.16 µM
[18] = second compound 0.316 µM, first compound 10 µM
[19] = second compound 1 µM, first compound 0.0316 µM
[20] = second compound 1 µM, first compound 0.1 µM
[21] = second compound 1 µM, first compound 0.316 µM
[22] = second compound 1 µM, first compound 1 µM
[23] = second compound 1 µM, first compound 3.16 µM
[24] = second compound 1 µM, first compound 10 µM
[25] = second compound 3.16 µM, first compound 0.0316 µM
[26] = second compound 3.16 µM, first compound 0.1 µM
[27] = second compound 3.16 µM, first compound 0.316 µM
[28] = second compound 3.16 µM, first compound 1 µM
[29] = second compound 3.16 µM, first compound 3.16 µM
[30] = second compound 3.16 µM, first compound 10 µM
[31] = second compound 10 µM, first compound 0.0316 µM
[32] = second compound 10 µM, first compound 0.1 µM
[33] = second compound 10 µM, first compound 0.316 µM
[34] = second compound 10 µM, first compound 1 µM
[35] = second compound 10 µM, first compound 3.16 µM
[36] = second compound 10 µM, first compound 10 µM
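Note: spheroids exposed to compounds for 7 days before readout.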
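Throughout, for viability, T/C: 100% = DMSO vehicle control viability.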

CC1COCCN1c1cc(C2(O)CC3CCC(C2)O3)c2cnn(-c3ccn[nH]3)c2n1 (stereo unspecified) + Nc1ccc(C#CCN(C(=O)Cc2ncc(C(F)(F)F)cc2C(F)(F)F)c2ccc(F)cc2)nn1
IC50 (second compound 0.0316 µM): 1.97 µM
IC50 (second compound 0.1 µM): 1.83 µM
IC50 (second compound 0.316 µM): 1.97 µM
IC50 (second compound 1 µM): 1.81 µM
IC50 (second compound 3.16 µM): 1.25 µM
IC50 (second compound 10 µM): 0.882 µM
viability, T/C [1]: 105%
viability, T/C [2]: 104%
viability, T/C [3]: 83%
viability, T/C [4]: 62.2%
viability, T/C [5]: 42.5%
viability, T/C [6]: 30.5%
viability, T/C [7]: 88.2%
viability, T/C [8]: 97.1%
viability, T/C [9]: 80.2%
viability, T/C [10]: 59%
viability, T/C [11]: 43.2%
viability, T/C [12]: 30.8%
viability, T/C [13]: 109%
viability, T/C [14]: 108%
viability, T/C [15]: 89.9%
viability, T/C [16]: 63.4%
viability, T/C [17]: 40.8%
viability, T/C [18]: 33.1%
viability, T/C [19]: 110%
viability, T/C [20]: 101%
viability, T/C [21]: 81.5%
viability, T/C [22]: 61.5%
viability, T/C [23]: 38.9%
viability, T/C [24]: 32.7%
viability, T/C [25]: 96.8%
viability, T/C [26]: 88.7%
viability, T/C [27]: 77.4%
viability, T/C [28]: 52.8%
viability, T/C [29]: 36.5%
viability, T/C [30]: 31%
viability, T/C [31]: 78.3%
viability, T/C [32]: 82.1%
viability, T/C [33]: 67.3%
viability, T/C [34]: 45.7%
viability, T/C [35]: 36.4%
viability, T/C [36]: 24.5%

CCc1cc2c(N3CCc4c(cc(Cn5ccnc5)cc4-c4cn(C)nc4C(F)(F)F)C3=O)cc(C)nc2c(OC)n1 + COC1C(OC(N)=O)C(O)C(Oc2ccc3c(O)c(NC(=O)c4ccc(O)c(CC=C(C)C)c4)c(=O)oc3c2C)OC1(C)C
IC50 (second compound 0.0316 µM): > 10 µM
IC50 (second compound 0.1 µM): > 10 µM
IC50 (second compound 0.316 µM): > 10 µM
IC50 (second compound 1 µM): > 10 µM
IC50 (second compound 3.16 µM): > 10 µM
IC50 (second compound 10 µM): > 10 µM
viability, T/C [1]: 108%
viability, T/C [2]: 89.5%
viability, T/C [3]: 103%
viability, T/C [4]: 91.4%
viability, T/C [5]: 100%
viability, T/C [6]: 79.9%
viability, T/C [7]: 109%
viability, T/C [8]: 117%
viability, T/C [9]: 102%
viability, T/C [10]: 89.1%
viability, T/C [11]: 106%
viability, T/C [12]: 101%
viability, T/C [13]: 99.6%
viability, T/C [14]: 113%
viability, T/C [15]: 95.9%
viability, T/C [16]: 92.2%
viability, T/C [17]: 100%
viability, T/C [18]: 88.9%
viability, T/C [19]: 97.4%
viability, T/C [20]: 93.8%
viability, T/C [21]: 81.1%
viability, T/C [22]: 95.8%
viability, T/C [23]: 106%
viability, T/C [24]: 82.2%
viability, T/C [25]: 105%
viability, T/C [26]: 113%
viability, T/C [27]: 101%
viability, T/C [28]: 102%
viability, T/C [29]: 102%
viability, T/C [30]: 86.1%
viability, T/C [31]: 95.4%
viability, T/C [32]: 104%
viability, T/C [33]: 89.8%
viability, T/C [34]: 105%
viability, T/C [35]: 86.4%
viability, T/C [36]: 89.4%

COc1cc2cc(C(=O)CCC(=O)O)sc2cc1OC + COC1C(OC(N)=O)C(O)C(Oc2ccc3c(O)c(NC(=O)c4ccc(O)c(CC=C(C)C)c4)c(=O)oc3c2C)OC1(C)C
IC50 (second compound 0.0316 µM): > 10 µM
IC50 (second compound 0.1 µM): > 10 µM
IC50 (second compound 0.316 µM): > 10 µM
IC50 (second compound 1 µM): > 10 µM
IC50 (second compound 3.16 µM): > 10 µM
IC50 (second compound 10 µM): > 10 µM
viability, T/C [1]: 97%
viability, T/C [2]: 109%
viability, T/C [3]: 103%
viability, T/C [4]: 83.6%
viability, T/C [5]: 89.7%
viability, T/C [6]: 95.1%
viability, T/C [7]: 99.9%
viability, T/C [8]: 105%
viability, T/C [9]: 99.7%
viability, T/C [10]: 90.4%
viability, T/C [11]: 116%
viability, T/C [12]: 83%
viability, T/C [13]: 119%
viability, T/C [14]: 130%
viability, T/C [15]: 112%
viability, T/C [16]: 110%
viability, T/C [17]: 94%
viability, T/C [18]: 96.8%
viability, T/C [19]: 108%
viability, T/C [20]: 107%
viability, T/C [21]: 115%
viability, T/C [22]: 110%
viability, T/C [23]: 91.9%
viability, T/C [24]: 90.2%
viability, T/C [25]: 114%
viability, T/C [26]: 97.9%
viability, T/C [27]: 90.2%
viability, T/C [28]: 118%
viability, T/C [29]: 121%
viability, T/C [30]: 80.5%
viability, T/C [31]: 117%
viability, T/C [32]: 112%
viability, T/C [33]: 109%
viability, T/C [34]: 97.7%
viability, T/C [35]: 126%
viability, T/C [36]: 88.7%
